# Assay results reported in patent US5334703A, “Chromogenic substrate” (Chromonogenix AB, priority 1989, dated 1994).
# Structures can show the parent of a compound that is named as a salt. Peptide text beside a SMILES is read from it. * marks the point of attachment. pNA = O=[N+]([O-])c1ccc(N*)cc1
# Tested on: activated LAL (Limulus Amebocyte Lysate)
# Assay: Single-stage chromogenic LAL-test (hydrolysis of the chromogenic substrate by endotoxin-activated LAL, pNA read at 405 nm)
# Format: biochemical, Limulus Potyphemus
# Settings: substrate concentration 2.2 mM in the reaction solution; endotoxin 0.1-1.2 EU/ml; Tris buffer pH 7.9; 37° C., 15 min; absorbance 405 nm
# Description: A series of endotoxin containing solutions, making up a standard curve in the range 0.1-1.2 EU/ml, were assayed as described below using the different chromogenic substrates. The slopes of the resulting standard curves were compared and the slope for the substrate S-2423 was considered to be 100%.
# A reagent (100 μl) consisting of a mixture of LAL (50% of the clotting concentration) and the chromogenic substrate (4.4 mM) in a Tris buffer of pH 7.9 is added to an equal volume of the sample. The resulting reaction (activation of the LAL and the subsequent hydrolyses of the chromogenic substrate)is carried out at 37° C. After 15 min. the reaction is terminated by the addition of 400 μl of acetic acid and the absorbance is read at 405 nm.
# Substrate S-2423 (Ac-Ile-Glu-Gly-Arg-pNA.HCl) is taken as standard.
row,Compound,"Relative activity (slope of endotoxin standard curve, S-2423 = 100%)"
1,"CC[C@H](C)[C@H](NC(C)=O)C(=O)N[C@@H](CCC(=O)O)C(=O)NCC(=O)N[C@@H](CCCNC(=N)N)C(=O)Nc1ccc([N+](=O)[O-])cc1 [Substrate S-2423, Ac--Ile--Glu--Gly--Arg--pNA.HCl, reference compound] (Ac-IEGR-pNA)",100%
2,"CC[C@H](C)[C@H](NC(C)=O)C(=O)N[C@@H](CCC(=O)O)C(=O)NCC(=O)N[C@@H](CCCCN)C(=O)Nc1ccc([N+](=O)[O-])cc1 [Substrate S-2834, Ac--Ile--Glu--Gly--Lys--pNA.HCl] (Ac-IEGK-pNA)",126%
3,"CC[C@H](C)[C@H](NC(C)=O)C(=O)N[C@@H](CO)C(=O)NCC(=O)N[C@@H](CCCCN)C(=O)Nc1ccc([N+](=O)[O-])cc1 [Substrate S-2854, Ac--Ile--Ser--Gly--Lys--pNA.HCl] (Ac-ISGK-pNA)",131%
4,"CC[C@H](C)[C@H](NC(C)=O)C(=O)N[C@@H](CCC(=O)O)C(=O)OCC(=O)N[C@@H](CCCNC(=N)N)C(=O)Nc1ccc([N+](=O)[O-])cc1 [Substrate S-2860, Ac--Ile--Glu-Glycolyl-Arg--pNA.HCl]",142%
